Reference: PubChem BioAssay AID2060892 (Molecular Pharmacology Branch, DTP, NCI, 2025)

System: HOP-62 complex spheroids with HUVEC/MSC, viability
Experiment: Anticancer human tumor HOP-62 cell line growth inhibition [RAS];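 further: spheroids exposed to agents for seven days before readout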;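 on viability, T/C: 100% = DMSO vehicle control viability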
Conditions: for IC50: curve of first compound; for viability, T/C: stronger effect = lower value
Source text: RAS pathway inhibitors in Combinations in Complex Spheroids
A high-throughput screen of multi-cell type tumor spheroids was designed to identify active combinations of RAS pathway inhibitors and targeted small molecules. Complex spheroids include a stromal component modeled by human endothelial cells (HUVEC) and fibroblasts modeled by human mesenchymal stem cells (MSCs). The concentration ranges selected for each drug and investigational agent were based upon clinically achievable concentrations if the clinical Cmax of the agent was known.
Compounds. The drugs and investigational agents: abemaciclib (NSC768073), cobimetinib (NSC768068), divarasib (GDC6063, NSC841802), docetaxel (NSC628503), GDC-1971 (RLY-1971, NSC841576), gemcitabine (NSC613327), inavolisib (NSC800729), ipatasertib (NSC767898), KB-0742 (NSC834161), MRTX-1133 (NSC836407), osimertinib (NSC779217), RMC-4630 (NSC839698), RMC-6236 (NSC851965), RMC-6291 (NSC852671), Ro-3306 (NSC812927), sapanisertib (NSC764658), SN-38 (NSC673596), staurosporine (NSC755774), SY5609 (NSC837396), and tovorafenib (DAY101, NSC766906), were obtained from the National Cancer Institute (NCI) Developmental Therapeutics Program Chemical Repository. The FDA-approved anticancer drug set is available from the NCI Developmental Therapeutics Program. […] The stock solutions were prepared in dimethyl sulfoxide (DMSO, Sigma-Aldrich, St. Louis, MO, cat. D2650) at 800-fold the tested concentration and stored at -70 degrees C prior to their use. All drugs and investigational agents were tested over a range starting from a high concentration at or near the clinical Cmax and decreasing in half-log increments. If the clinical Cmax for an agent had not been determined, the highest concentration tested was 10 microM.
Cell Culture. All cells were maintained in an incubator at 37 degrees C and 5% CO2 with 95% humidity. The PDC lines were cultured according to standard operating procedures established by the NCI PDMR. All PDCs were thawed and cultured in Matrigel-coated flasks prepared with a working solution of 1X Ham's F-12 nutrient mix, without supplementation (Invitrogen, Waltham, MA, cat. 11765054), 100 U/mL penicillin-streptomycin (Invitrogen, cat. 15140122), and 2.5% Matrigel (Corning Inc., Corning, NY, cat. 354248) for the first three passages. The 362531-283-R-J2-PDC and 782815-120-R-J1-PDC lines were cultured in 6C/Colon 1B media, which includes advanced DMEM/F-12 (Thermo Fisher Scientific, cat. 12634028), 10 mM HEPES (Thermo Fisher Scientific, cat. 15630080), 1X GlutaMAX supplement (Thermo Fisher Scientific, cat. 35050061), 0.1 mg/mL primocin (InvivoGen, San Diego, CA, cat. ant-pm-2), 10% defined fetal bovine serum, heat inactivated (HyClone Laboratories Inc., Logan, UT, cat. SH30070.03HI), 50% L-WRN conditioned media (ATCC, cat. CRL-3276), 1.25 mM N-Acetyl-L-cysteine (Sigma-Aldrich, cat. A9165), 10 mM nicotinamide (Sigma-Aldrich, cat. N0636), 1X B-27 supplement (Thermo Fisher Scientific, cat. 17504044), 1X N-2 supplement (Thermo Fisher Scientific, cat. 17502048), 50 ng/mL human EGF (Thermo Fisher Scientific, cat. PHG0311), and 10 microM Y-27632 dihydrochloride (Tocris Bioscience, cat. 1254). The K12877-001-R-J1-PDC line was cultured in 6I media, which includes all 6C/Colon 1B media plus 10 ng/mL human FGF-10 (PeproTech, cat. 100-26), 1 ng/mL human FGF-2 (PeproTech, cat. 100-18B), 1 µM prostaglandin E2 (Tocris Bioscience, cat. 2296), […] hydrocortisone (Sigma-Aldrich, cat. H4001), and […] bovine insulin (Sigma-Aldrich, cat. I6634). The K86415-001-R-J1-PDC line was cultured in 6D media, which includes all 6C/Colon 1B media components minus the L-WRN conditioned media. The 485176-168-R4-J1-PDC was cultured in PANC media, which includes all 6C/Colon 1B media plus 100 ng/mL human FGF-10 (PeproTech, cat. 100-26), 500 nM SB-431542 (Selleckchem, cat. S1067), and 10 nM gastrin (Tocris Bioscience, cat. 3006). […]

[1] = second compound 0.0316 µM, first compound 0.0316 µM
[2] = second compound 0.0316 µM, first compound 0.1 µM
[3] = second compound 0.0316 µM, first compound 0.316 µM
[4] = second compound 0.0316 µM, first compound 1 µM
[5] = second compound 0.0316 µM, first compound 3.16 µM
[6] = second compound 0.0316 µM, first compound 10 µM
[7] = second compound 0.1 µM, first compound 0.0316 µM
[8] = second compound 0.1 µM, first compound 0.1 µM
[9] = second compound 0.1 µM, first compound 0.316 µM
[10] = second compound 0.1 µM, first compound 1 µM
[11] = second compound 0.1 µM, first compound 3.16 µM
[12] = second compound 0.1 µM, first compound 10 µM
[13] = second compound 0.316 µM, first compound 0.0316 µM
[14] = second compound 0.316 µM, first compound 0.1 µM
[15] = second compound 0.316 µM, first compound 0.316 µM
[16] = second compound 0.316 µM, first compound 1 µM
[17] = second compound 0.316 µM, first compound 3.16 µM
[18] = second compound 0.316 µM, first compound 10 µM
[19] = second compound 1 µM, first compound 0.0316 µM
[20] = second compound 1 µM, first compound 0.1 µM
[21] = second compound 1 µM, first compound 0.316 µM
[22] = second compound 1 µM, first compound 1 µM
[23] = second compound 1 µM, first compound 3.16 µM
[24] = second compound 1 µM, first compound 10 µM
[25] = second compound 3.16 µM, first compound 0.0316 µM
[26] = second compound 3.16 µM, first compound 0.1 µM
[27] = second compound 3.16 µM, first compound 0.316 µM
[28] = second compound 3.16 µM, first compound 1 µM
[29] = second compound 3.16 µM, first compound 3.16 µM
[30] = second compound 3.16 µM, first compound 10 µM
[31] = second compound 10 µM, first compound 0.0316 µM
[32] = second compound 10 µM, first compound 0.1 µM
[33] = second compound 10 µM, first compound 0.316 µM
[34] = second compound 10 µM, first compound 1 µM
[35] = second compound 10 µM, first compound 3.16 µM
[36] = second compound 10 µM, first compound 10 µM

## CC1(O)CCCC1n1c(=O)c(C(F)F)cc2cnc(NC3CCN(S(C)(=O)=O)CC3)nc21 (stereo unspecified) + C#Cc1c(F)ccc2cc(O)cc(-c3ncc4c(N5CC6CCC(C5)N6)nc(OCC56CCCN5CC(F)C6)nc4c3F)c12
Second compound 0.0316 µM
  IC50: 383 nM
Second compound 0.1 µM
  IC50: 398 nM
Second compound 0.316 µM
  IC50: 343 nM
Second compound 1 µM
  IC50: 324 nM
Second compound 3.16 µM
  IC50: 146 nM
Second compound 10 µM
  IC50: < 31.6 nM
[1]
  viability, T/C: 87.9%
[2]
  viability, T/C: 53.1%
[3]
  viability, T/C: 43.3%
[4]
  viability, T/C: 40.5%
[5]
  viability, T/C: 47.8%
[6]
  viability, T/C: 0.9%
[7]
  viability, T/C: 91.3%
[8]
  viability, T/C: 52.2%
[9]
  viability, T/C: 45.3%
[10]
  viability, T/C: 48.8%
[11]
  viability, T/C: 35.7%
[12]
  viability, T/C: 1.45%
[13]
  viability, T/C: 91.4%
[14]
  viability, T/C: 50.7%
[15]
  viability, T/C: 38%
[16]
  viability, T/C: 42%
[17]
  viability, T/C: 42.2%
[18]
  viability, T/C: 1.44%
[19]
  viability, T/C: 84.7%
[20]
  viability, T/C: 53.6%
[21]
  viability, T/C: 37.2%
[22]
  viability, T/C: 45.2%
[23]
  viability, T/C: 40%
[24]
  viability, T/C: 3.73%
[25]
  viability, T/C: 66.6%
[26]
  viability, T/C: 47.9%
[27]
  viability, T/C: 34%
[28]
  viability, T/C: 41.4%
[29]
  viability, T/C: 27.6%
[30]
  viability, T/C: 1.45%
[31]
  viability, T/C: 42%
[32]
  viability, T/C: 37.3%
[33]
  viability, T/C: 27.8%
[34]
  viability, T/C: 29.4%
[35]
  viability, T/C: 32.5%
[36]
  viability, T/C: 1.15%

## CCC(CC)c1cc(NC2CCC(N)C2)n2nccc2n1 (stereo unspecified) + C#Cc1c(F)ccc2cc(O)cc(-c3ncc4c(N5CC6CCC(C5)N6)nc(OCC56CCCN5CC(F)C6)nc4c3F)c12
Second compound 0.0316 µM
  IC50: 1650 nM
Second compound 0.1 µM
  IC50: 1860 nM
Second compound 0.316 µM
  IC50: 1800 nM
Second compound 1 µM
  IC50: 1750 nM
Second compound 3.16 µM
  IC50: 1540 nM
Second compound 10 µM
  IC50: 1120 nM
[1]
  viability, T/C: 108%
[2]
  viability, T/C: 111%
[3]
  viability, T/C: 107%
[4]
  viability, T/C: 88.2%
[5]
  viability, T/C: 0.7%
[6]
  viability, T/C: 0.37%
[7]
  viability, T/C: 112%
[8]
  viability, T/C: 115%
[9]
  viability, T/C: 118%
[10]
  viability, T/C: 107%
[11]
  viability, T/C: 1.36%
[12]
  viability, T/C: 1.21%
[13]
  viability, T/C: 122%
[14]
  viability, T/C: 105%
[15]
  viability, T/C: 111%
[16]
  viability, T/C: 101%
[17]
  viability, T/C: 0.69%
[18]
  viability, T/C: 0.93%
[19]
  viability, T/C: 108%
[20]
  viability, T/C: 104%
[21]
  viability, T/C: 99.9%
[22]
  viability, T/C: 96.7%
[23]
  viability, T/C: 0.48%
[24]
  viability, T/C: 0.25%
[25]
  viability, T/C: 83.7%
[26]
  viability, T/C: 90.8%
[27]
  viability, T/C: 88.3%
[28]
  viability, T/C: 79.5%
[29]
  viability, T/C: 0.74%
[30]
  viability, T/C: 1.33%
[31]
  viability, T/C: 48.1%
[32]
  viability, T/C: 47.3%
[33]
  viability, T/C: 56%
[34]
  viability, T/C: 70.2%
[35]
  viability, T/C: 0.95%
[36]
  viability, T/C: 0.56%

## CCN1CCN(Cc2ccc(Nc3ncc(F)c(-c4cc(F)c5nc(C)n(C(C)C)c5c4)n3)nc2)CC1 + C#Cc1c(F)ccc2cc(O)cc(-c3ncc4c(N5CC6CCC(C5)N6)nc(OCC56CCCN5CC(F)C6)nc4c3F)c12
Second compound 0.0316 µM
  IC50: > 1000 nM
Second compound 0.1 µM
  IC50: > 1000 nM
Second compound 0.316 µM
  IC50: > 1000 nM
Second compound 1 µM
  IC50: > 1000 nM
Second compound 3.16 µM
  IC50: > 1000 nM
Second compound 10 µM
  IC50: < 3.16 nM
Second compound 0.0316 µM, first compound 0.00316 µM
  viability, T/C: 119%
Second compound 0.0316 µM, first compound 0.01 µM
  viability, T/C: 105%
[1]
  viability, T/C: 101%
[2]
  viability, T/C: 90.6%
[3]
  viability, T/C: 95.8%
[4]
  viability, T/C: 88.1%
Second compound 0.1 µM, first compound 0.00316 µM
  viability, T/C: 111%
Second compound 0.1 µM, first compound 0.01 µM
  viability, T/C: 103%
[7]
  viability, T/C: 89.8%
[8]
  viability, T/C: 91.6%
[9]
  viability, T/C: 89.3%
[10]
  viability, T/C: 66.2%
Second compound 0.316 µM, first compound 0.00316 µM
  viability, T/C: 109%
Second compound 0.316 µM, first compound 0.01 µM
  viability, T/C: 102%
[13]
  viability, T/C: 96.3%
[14]
  viability, T/C: 86%
[15]
  viability, T/C: 90.2%
[16]
  viability, T/C: 81.2%
Second compound 1 µM, first compound 0.00316 µM
  viability, T/C: 106%
Second compound 1 µM, first compound 0.01 µM
  viability, T/C: 99.6%
[19]
  viability, T/C: 90.7%
[20]
  viability, T/C: 82.3%
[21]
  viability, T/C: 83.2%
[22]
  viability, T/C: 67.7%
Second compound 3.16 µM, first compound 0.00316 µM
  viability, T/C: 84.5%
Second compound 3.16 µM, first compound 0.01 µM
  viability, T/C: 76%
[25]
  viability, T/C: 69%
[26]
  viability, T/C: 57.9%
[27]
  viability, T/C: 62.5%
[28]
  viability, T/C: 57.7%
Second compound 10 µM, first compound 0.00316 µM
  viability, T/C: 46.4%
Second compound 10 µM, first compound 0.01 µM
  viability, T/C: 48.3%
[31]
  viability, T/C: 38.3%
[32]
  viability, T/C: 45.7%
[33]
  viability, T/C: 45.2%
[34]
  viability, T/C: 42.5%
